Test results as given in the NIST ThermoML archive (doi:10.1021/je4009238).

Legend:
[1] = refractive index (Na D-line) (dimensionless); xn = mol fraction of the nth substance listed; conditions: 101 kPa, Liquid
[2] = xn = mol fraction of the nth substance listed; conditions: 101 kPa, Liquid

CCCCCCn1cc[n+](C)c1.[Cl-] [1-hexyl-3-methylimidazolium chloride] + CN(C)C=O
Conditions	mass density, [2] [kg/m3]	refractive index, [1]	viscosity, [2] [mPa·s]
288.15 K, x1 = 0.0312	964.44	1.44088	1.271
288.15 K, x1 = 0.0646	973.48	1.44818	1.715
288.15 K, x1 = 0.102	982	1.45488	2.392
288.15 K, x1 = 0.1456	990.33	1.46175	4.166
288.15 K, x1 = 0.196	998.49	1.46836	6.28
288.15 K, x1 = 0.2502	1005.77	1.47473	10.77
288.15 K, x1 = 0.3144	1013.08	1.4808	17.98
288.15 K, x1 = 0.3893	1020.04	1.48693	32.59
288.15 K, x1 = 0.4796	1026.84	1.49278	65.31
288.15 K, x1 = 0.591	1033.55	1.49886	134.94
288.15 K, x1 = 0.7249	1039.53	1.50429	232.47
288.15 K, x1 = 1	1047.99	1.5125	–
298.15 K, x1 = 0.0312	955.32	1.43634	1.097
298.15 K, x1 = 0.0646	964.62	1.44359	1.451
298.15 K, x1 = 0.102	973.43	1.45059	2.064
298.15 K, x1 = 0.1456	982.06	1.45751	2.874
298.15 K, x1 = 0.196	990.57	1.46433	4.815
298.15 K, x1 = 0.2502	998.08	1.47086	7.927
298.15 K, x1 = 0.3144	1005.74	1.47702	12.52
298.15 K, x1 = 0.3893	1012.97	1.48213	21.49
298.15 K, x1 = 0.4796	1019.96	1.48933	40.25
298.15 K, x1 = 0.591	1026.93	1.49567	76.98
298.15 K, x1 = 0.7249	1033.24	1.50108	178.3
298.15 K, x1 = 1	1042.2	1.50953	–
308.15 K, x1 = 0.0312	946.13	1.43187	0.961
308.15 K, x1 = 0.0646	955.75	1.43909	1.249
308.15 K, x1 = 0.102	964.86	1.44632	1.733
308.15 K, x1 = 0.1456	973.81	1.4533	2.348
308.15 K, x1 = 0.196	982.59	1.46038	3.817
308.15 K, x1 = 0.2502	990.42	1.46695	6.056
308.15 K, x1 = 0.3144	998.35	1.47335	9.115
308.15 K, x1 = 0.3893	1005.87	1.47856	15.08
308.15 K, x1 = 0.4796	1013.14	1.48595	26.46
308.15 K, x1 = 0.591	1020.36	1.49237	47.62
308.15 K, x1 = 0.7249	1026.94	1.49797	75.17
308.15 K, x1 = 1	1036.43	1.50667	2044.2
318.15 K, x1 = 0.0312	936.91	1.42765	0.852
318.15 K, x1 = 0.0646	946.92	1.43468	1.091
318.15 K, x1 = 0.102	956.28	1.44219	1.489
318.15 K, x1 = 0.1456	965.63	1.44909	1.957
318.15 K, x1 = 0.196	974.62	1.45652	3.113
318.15 K, x1 = 0.2502	982.82	1.46293	4.77
318.15 K, x1 = 0.3144	990.96	1.46974	6.88
318.15 K, x1 = 0.3893	998.8	1.47497	10.95
318.15 K, x1 = 0.4796	1006.38	1.48264	18.37
318.15 K, x1 = 0.591	1013.87	1.48916	31.33
318.15 K, x1 = 0.7249	1020.7	1.49498	47.69
318.15 K, x1 = 1	1030.62	1.5039	884.2
